The chains are these.
T1: SGIP1 μHD (residues 552 to 828) (Homo sapiens, UniProt Q9BQI5)
T1 construct: the SGIP1 μHD (residues 552 to 828); GST (N, cleaved yes); made in house; host or cells: Escherichia coli BL21-Gold (DE3) or Rosetta2
T1 sequence (Q9BQI5 552-828): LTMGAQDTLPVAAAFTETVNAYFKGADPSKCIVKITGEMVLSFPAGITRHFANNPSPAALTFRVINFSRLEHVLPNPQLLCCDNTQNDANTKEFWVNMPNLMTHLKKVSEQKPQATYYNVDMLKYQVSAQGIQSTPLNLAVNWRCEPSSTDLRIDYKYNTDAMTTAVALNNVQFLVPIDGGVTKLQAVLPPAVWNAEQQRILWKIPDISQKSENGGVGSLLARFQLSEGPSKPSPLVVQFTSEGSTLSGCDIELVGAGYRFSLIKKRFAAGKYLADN

T2: SGIP1 µHD N670D (Homo sapiens, UniProt Q9BQI5, N670D)
T2 construct: the SGIP1 μHD (residues 552 to 828); GST (N, cleaved yes); made in house; host or cells: Escherichia coli (as for the wild-type μHD)
T2 sequence (Q9BQI5 552-828 N670D): T1 sequence (Q9BQI5 552-828) with N119D

T3: FCHo1 µHD (residues 623 to 889) (Homo sapiens, UniProt O14526)
T3 construct: GST (N, cleaved yes); made in house; host or cells: Escherichia coli (as for the SGIP1 μHD)
T3 sequence (O14526 623-889): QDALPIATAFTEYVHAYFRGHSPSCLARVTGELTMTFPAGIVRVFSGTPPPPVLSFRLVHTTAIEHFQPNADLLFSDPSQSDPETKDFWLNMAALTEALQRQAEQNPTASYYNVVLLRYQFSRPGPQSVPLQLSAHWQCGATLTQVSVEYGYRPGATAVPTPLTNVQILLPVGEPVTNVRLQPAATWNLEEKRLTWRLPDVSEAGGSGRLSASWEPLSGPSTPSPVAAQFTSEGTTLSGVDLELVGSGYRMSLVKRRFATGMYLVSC

T4: SGIP1 µHD K816E (Homo sapiens, UniProt Q9BQI5, K816E)
T4 construct: the SGIP1 μHD (residues 552 to 828); GST (N, cleaved yes); made in house; host or cells: Escherichia coli (as for the wild-type μHD)
T4 sequence (Q9BQI5 552-828 K816E): T1 sequence (Q9BQI5 552-828) with K265E

T5: appendage domain of human α-adaptin (residues 711 to 955) (human, UniProt O95782-2 711-955)
T5 construct: also called α-adaptin appendage domain; source: E. coli, purified in the same manner as for the SGIP1 μHD
T5 sequence (looked up): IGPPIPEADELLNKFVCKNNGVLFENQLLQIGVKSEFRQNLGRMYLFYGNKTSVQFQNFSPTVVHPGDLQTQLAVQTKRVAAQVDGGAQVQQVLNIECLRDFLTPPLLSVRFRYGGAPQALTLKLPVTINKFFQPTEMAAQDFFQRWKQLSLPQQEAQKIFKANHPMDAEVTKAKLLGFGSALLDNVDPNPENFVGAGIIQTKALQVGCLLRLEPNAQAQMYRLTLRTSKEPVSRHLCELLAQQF

B1: Eps15-661–720 (domain or fragment, human, UniProt P42566-1 661-720, looked up)
chain: QSTDPFATSSTDPFSAANNSSITSVETLKHNDPFAPGGTVVAASDSATDPFASVFGNESF
notes: Eps15, human, residues 661-720; source: E. coli, purified in the same manner as for the SGIP1 μHD
B2: Eps15-618–654 (domain or fragment, human)
chain: GPLGSYDFFQSDPFVGSDPFKDDPFGKIDPFGGDPFKGSDPFA
notes: source: E. coli, expressed and purified in the same manner as the SGIP1 µHD
B3: Eps15-661–790 (domain or fragment, human, UniProt P42566-1 661-790, looked up)
chain: QSTDPFATSSTDPFSAANNSSITSVETLKHNDPFAPGGTVVAASDSATDPFASVFGNESFGGGFADFSTLSKVNNEDPFRSATSSSVSNVVITKNVFEETSVKSEDEPPALPPKIGTPTRPCPLPPGKRS
notes: Eps15, human, residues 661-790 (limits from the fragment's name); source: E. coli, purified in the same manner as for the SGIP1 μHD
B4: FCHo1 µ homology domain (µHD), residues 623 to 889 (domain or fragment, human, UniProt O14526-1 623-889, looked up)
chain: T3 sequence (O14526 623-889)
notes: also called FCHo1 µHD; human FCHo1 µHD (aa623–889); source: E. coli, expressed and purified in the same manner as the SGIP1 µHD

Positions count from the first letter of the chain named.

Assay [1] has as its target T1, SGIP1 μHD (residues 552 to 828). Description: ITC of Eps15 fragments with the SGIP1 μHD. Format: binding. As to conditions: for -TΔS / ΔG / ΔH / N (binding ratio of Eps15 fragment to μHD): μHD in cell titrated with fragment. In short, it runs like this: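 Isothermal titration calorimetry was run at 25 °C in 50 mM Tris-HCl pH 8.0, 50 mM NaCl, mostly titrating Eps15 fragments or peptides into μHD protein in the cell (25 injections, 4 min apart). Some runs reversed the titration direction. Duplicate runs were globally fitted to single- or two-site models, with N derived from incompetent-fraction parameters.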

The next assay addresses T2, SGIP1 µHD N670D. Description: ITC of Eps15 fragments with the SGIP1 μHD N670D mutant. In kind it is binding. The procedure: (§1) For the majority of the ITC experiments, the SGIP1 μHD, its mutants, or the FCHo1 μHD, in 50 mM Tris-HCl buffer (pH 8.0) containing 50 mM NaCl, was loaded in the sample cell, in a volume of 1.42 ml, and titrated with various Eps15-derived fragments or peptides in the same buffer, with an initial 5 μl injection and subsequent 10 μl injections, for a total of 25 injections. The titrations were performed while the samples were stirred at 310 r.p.m. at 25 °C. Each injection was followed by an interval of 4 min, to allow baseline stabilization. For the other ITC experiments indicated in Supplementary Table 2, the Eps15-derived fragments or peptides in the sample cell were titrated with the SGIP1 or FCHo1 μHD. All ITC experiments were performed on a VP-ITC microcalorimeter (MicroCal, LLC) and repeated twice, and the data were processed with the program NITPIC[42]. The two data sets from each ITC experiment were analyzed by global weighted least-squares fitting with the program SEDPHAT[43]. Figures for the ITC data were created with the program GUSSI (http://biophysics.swmed.edu/MBR/software.html). To obtain the values of the traditional stoichiometric parameter N in our ITC data analyses (Supplementary Table 2), we used the values of the parameters of the incompetent fractions of proteins and ligands. […]

Assay [2] addresses T3, FCHo1 µHD (residues 623 to 889). Briefly: ITC of Eps15 fragments with the FCHo1 μHD. In kind it is binding. The following applies: FCHo1 μHD in cell titrated with fragment, single-site model. On the procedure: For the majority of the ITC experiments, the SGIP1 μHD, its mutants, or the FCHo1 μHD, in 50 mM Tris-HCl buffer (pH 8.0) containing 50 mM NaCl, was loaded in the sample cell, in a volume of 1.42 ml, and titrated with various Eps15-derived fragments or peptides in the same buffer, with an initial 5 μl injection and subsequent 10 μl injections, for a total of 25 injections. The titrations were performed while the samples were stirred at 310 r.p.m. at 25 °C. Each injection was followed by an interval of 4 min, to allow baseline stabilization. For the other ITC experiments indicated in Supplementary Table 2, the Eps15-derived fragments or peptides in the sample cell were titrated with the SGIP1 or FCHo1 μHD. All ITC experiments were performed on a VP-ITC microcalorimeter (MicroCal, LLC) and repeated twice, and the data were processed with the program NITPIC[42]. The two data sets from each ITC experiment were analyzed by global weighted least-squares fitting with the program SEDPHAT[43]. Figures for the ITC data were created with the program GUSSI (http://biophysics.swmed.edu/MBR/software.html). To obtain the values of the traditional stoichiometric parameter N in our ITC data analyses (Supplementary Table 2), we used the values of the parameters of the incompetent fractions of proteins and ligands. […] The values of the incompetent fractions are between 0 and 1, whereas the other parameter affecting the traditional parameter N, the number of sites, was fixed as 1 and 2, for the single- and two-site models, respectively. Thus, in the two-site model, the values of N for the first and second sites are identical in our ITC data analyses (Supplementary Table 2).

Another assay addresses T4, SGIP1 µHD K816E. Description: ITC of Eps15 fragments with the SGIP1 μHD K816E mutant. In kind it is binding. The procedure:
as §1

Assay [3] deals with T5, appendage domain of human α-adaptin …. Briefly: ITC; VP-ITC; α-adaptin appendage domain with Eps15 fragments; which of the two was in the cell is not told in the text (Supplementary Table 2). As to conditions: both partners purified. In general terms: In ITC the heat of successive injections is recorded.
Assay [4] concerns the target B4. Description: ITC; Eps15 fragment in the sample cell, titrated with the SGIP1 or FCHo1 µHD; 50 mM Tris-HCl (pH 8.0), 50 mM NaCl, 25 °C; VP-ITC; two data sets fitted globally (NITPIC, SEDPHAT); single-site or two-site model as named in the quantity. As to conditions: both partners purified.
Assay [5] concerns the target B4. Description: ITC; µHD, µHD mutant or α-adaptin appendage domain in the sample cell, titrated with the Eps15 fragment or peptide; 50 mM Tris-HCl (pH 8.0), 50 mM NaCl, 25 °C; VP-ITC; two data sets fitted globally (NITPIC, SEDPHAT); single-site model. The following applies: both partners purified.
The target of assay [6] is α-adaptin appendage domain (residues 711 to 955). Description: ITC of Eps15 fragments with the α-adaptin appendage domain. Format: binding, human.
In the assay “Eps15-618–654” the target is B2. Description: ITC; Eps15 fragment in the sample cell, titrated with the SGIP1 or FCHo1 µHD; 50 mM Tris-HCl (pH 8.0), 50 mM NaCl, 25 °C; VP-ITC; two data sets fitted globally (NITPIC, SEDPHAT); single-site or two-site model as named in the quantity. The following applies: both partners purified.
[7] abbreviates: 25 °C, single-site model, ± 68.3% confidence interval.
[8] abbreviates: single-site model, ± 68.3% confidence interval.
Where [9] appears, read: 25 °C, 50 mM Tris-HCl pH 8.0, 50 mM NaCl, mutant μHD in cell titrated with fragment, two runs.

The text below walks through data of paper PMC4731787, “Structural basis for the recognition of two consecutive mutually interacting DPF motifs by the SGIP1 μ homology domain” (Scientific Reports, 2016).

As usually defined, the Kd is the free concentration of one partner at which half of the binding sites on the other are occupied at equilibrium, for simple one-to-one binding. Usually stoichiometry N stands for the number of molecules, sites or subunits per partner or assembly.

Turning to Ac-YDPFGGDPFKG-NH2 [Eps15-640–649], in assay [1] (25 °C, single-site model), the “-TΔS” value amounted to 2.106 kcal/mol and the ΔG was -6.166 kcal/mol. In assay [1] (setting [7]), this molecule came in with a ΔH of -8.272 ± 0.679 kcal/mol. In assay [1] (setting [8]), the “N (binding ratio of Eps15 fragment to μHD)” value is listed as 0.66 ± 0.03. Also, the “binding to SGIP1 μHD with Asn670 replaced by Asp (in words)” value on SGIP1 µHD N670D is listed as “abolished the binding”. Besides, the dissociation constant (Kd) result at SGIP1 µHD N670D (setting [9]) is on record as “below detection limit”.
On to Ac-YDPFGGDPFKGSDPFA-NH2 [Eps15-640–654], for which the Kd was 5500 ± 1400 nM in assay [2] (25 °C, 50 mM Tris-HCl pH 8.0, 50 mM NaCl, global fit of two runs, ± 68.3% confidence interval) and “below detection limit” at SGIP1 µHD K816E (setting [9]). The “-TΔS” value stood at 0.748 kcal/mol in assay [2] (25 °C) and 3.482 kcal/mol in [1] (25 °C, single-site model). Also, the ΔG in assay [2] (25 °C) is -7.175 kcal/mol; in [1] (25 °C, single-site model), -7.559 kcal/mol. Further, the ΔH was -7.923 ± 1.098 kcal/mol in assay [2] (25 °C, ± 68.3% confidence interval) and -11.041 ± 0.191 kcal/mol in [1] (setting [7]). In assay [2] (± 68.3% confidence interval), the “N (binding ratio of Eps15 fragment to FCHo1 μHD)” value amounted to 0.64 ± 0.06. The “binding to SGIP1 μHD with Lys816 replaced by Glu (in words)” value at SGIP1 µHD K816E was “abolished the binding”. In assay [1], the “binding to the SGIP1 μHD (in words)” value is “slightly stronger affinity than Eps15-622–637”. Moreover, in assay [1] (setting [8]), the “N (binding ratio of Eps15 fragment to μHD)” value was 0.66 ± 0.01.
In the case of B1, the binding result in assay [3] is recorded as “binds”.
In turn, B2 displayed a Kd in assay [4] of 190 nM. In addition, in assay [5], binding was put at a Kd of 270 nM and the “stoichiometry N” value is 0.59.
For the molecule B3, the “Kd for the α-adaptin appendage domain (in words)” value in assay [6] was “in the nanomolar range”. The Kd is 690 ± 80 nM in [6] (25 °C, appendage domain titrated with Eps15 fragment, single-site model, global fit of two runs, ± 68.3% confidence interval) and “below detection limit” in [1] (25 °C, 50 mM Tris-HCl pH 8.0, 50 mM NaCl, μHD in sample cell titrated with Eps15 fragment, single-site model, global fit of two runs, ± 68.3% confidence interval). The “-TΔS” value in assay [6] (25 °C, single-site model) came out at 20.041 kcal/mol. In addition, the ΔG in [6] (25 °C, single-site model) is -8.401 kcal/mol. The molecule also yielded a ΔH in assay [6] (setting [7]) of -28.442 ± 0.319 kcal/mol. The “binding to the SGIP1 μHD (in words)” value in [1] is on record as “could not detect the clear binding”. Moreover, the binding result in assay [3] is “binds”.
On to B4, for which the “stoichiometry N” value in the assay with Eps15-618–654 is 0.7.
